Test results: patent US20250066286A1, “COMPOSITIONS OF (Z)-ENDOXIFEN AND METHODS OF ENRICHMENT THEREOF” (Atossa Therapeutics, Inc., priority 2022, published 2025)
Converted amounts (≈) assume the structure as drawn. Read-outs that look alike come from different tables or passages of the source.

Test: Solvent mixture solubility tests of (Z)-endoxifen
Format: physicochemical
Experimental: To test the solubility of (Z)-endoxifen in varying conditions, 10 mg of (Z)-endoxifen was added to a stoppered tube, and 0.01 ml of the selected solvent was added (1000 mg/ml solution). The tube was shaken vigorously for 1 minute and then incubated at a constant temperature of 25.0° C. for 15 minutes. If the solid was not completed dissolved, the tube was shaken again and placed at the constant temperature of 25.0° C. for another 15 minutes. If the solid was completely dissolved at this step, it was considered to be very soluble in the selected solvent system. If the solid was not dissolved by this step, another 0.09 ml was added (yielding a 100 mg/ml solution) and an attempt to further dissolve the solid was made by the same steps of shaking and incubating twice over as described previously. If the solid was completely dissolved at this step, it was considered freely soluble. If the solid was not dissolved by this step another 0.2 ml was added (yielding a 33.3 mg/ml solution) and an attempt to further dissolve the solid was made by the same steps of shaking and incubating twice over as described previously. If the solid was completely dissolved at this step, it was considered soluble. If the solid was not dissolved by this step another, 0.7 ml was added (yielding a 10 mg/ml solution) and an attempt to further dissolve the solid was made by the same steps of shaking and incubating twice over as described previously. If the solid was completely dissolved at this step, it was considered sparingly soluble. If the solid was not dissolved by this step the sample was considered to be slightly soluble or very slightly soluble and the solution was heated until the boiling point of the solvent system (max 100° C.) under stirring with a rate of 0.5° C. per minute temperature ramp rate to verify the solubility at high temperatures. The hot solution was after cooled to room temperature with a cooling rate of 0.5° C. per minute to verify if the sample had precipitated after up to 18 hours under magnetic stirring. The same procedure was also used for the solvent mixture solubility tests. The concentrations investigated for the solvent mixture stability were 40 mg/ml and 100 mg/ml. Some solutions in the following example were precipitated by cooling of the solution from a temperature between 50-100° C. to between 10-25° C. at a rate ranging from −0.2 to −0.5° C./minute resulting in a precipitate.

[1] = 2-propanol/tetrahydrofuran 95/5 v/v, 40 mg/mL
[2] = acetone/2-propanol 67/33 v/v, 40 mg/mL
[3] = acetone/tetrahydrofuran 95/5 v/v, 40 mg/mL
[4] = ethyl acetate/2-propanol 50/50 v/v, 100 mg/mL
[5] = ethyl acetate/tetrahydrofuran 95/5 v/v, 40 mg/mL
[6] = heptane/2-propanol 50/50 v/v, 40 mg/mL

solubility (2-propanol/THF (95/5 v/v), organic solvent or mixture, thermodynamic from solid, 2-propanol/THF (95/5 v/v), high temperature, precipitated during cooling, read-out: Solubility): 40 mg/mL (≈ 107 mM)
solubility (2-propanol/tetrahydrofuran 95/5 v/v, organic solvent or mixture, thermodynamic from solid, 2-propanol/tetrahydrofuran 95/5 v/v, 100 mg/mL, high temperature, read-out: Solubility HT (100 mg/mL): Sol. HT): < 100 mg/mL
Solubility HT (40 mg/mL): Clear point [1]: 52.8 °C
Solubility HT (40 mg/mL): Cloudy point [1]: 28.6 °C
Solubility HT (40 mg/mL): Sol. HT (2-propanol/tetrahydrofuran 95/5 v/v, 40 mg/mL, high temperature): YES
Solubility HT (40 mg/mL): Re-PPT (2-propanol/tetrahydrofuran 95/5 v/v, 40 mg/mL, on cooling): YES
solubility (acetone/2-propanol 67/33 v/v, organic solvent or mixture, thermodynamic from solid, acetone/2-propanol 67/33 v/v, 100 mg/mL, high temperature, read-out: Solubility HT (100 mg/mL): Sol. HT): < 100 mg/mL
Solubility HT (40 mg/mL): Clear point [2]: 36.8 °C
Solubility HT (40 mg/mL): Re-PPT after 18 hours at −20° C. [2]: YES
Solubility HT (40 mg/mL): Sol. HT (acetone/2-propanol 67/33 v/v, 40 mg/mL, high temperature): YES
solubility (acetone/2-propanol (63/37 v/v), high temperature, precipitated after 18 hours at −20° C.): soluble
solubility (acetone/THF (95/5 v/v), high temperature, precipitated after 18 hours at −20° C.): soluble
solubility (acetone/acetonitrile 50/50 v/v, organic solvent or mixture, thermodynamic from solid, acetone/acetonitrile 50/50 v/v, 40 mg/mL, high temperature, read-out: Solubility HT (40 mg/mL): Sol. HT): < 40 mg/mL
solubility (acetone/acetonitrile 50/50 v/v, organic solvent or mixture, thermodynamic from solid, acetone/acetonitrile 50/50 v/v, 100 mg/mL, high temperature, read-out: Solubility HT (100 mg/mL): Sol. HT): < 100 mg/mL
solubility (acetone/acetonitrile (50/50 v/v), organic solvent or mixture, thermodynamic from solid, acetone/acetonitrile (50/50 v/v), high temperature, read-out: Solubility): < 40 mg/mL
solubility (acetone/ethyl acetate 50/50 v/v, organic solvent or mixture, thermodynamic from solid, acetone/ethyl acetate 50/50 v/v, 40 mg/mL, high temperature, read-out: Solubility HT (40 mg/mL): Sol. HT): < 40 mg/mL
solubility (acetone/ethyl acetate 50/50 v/v, organic solvent or mixture, thermodynamic from solid, acetone/ethyl acetate 50/50 v/v, 100 mg/mL, high temperature, read-out: Solubility HT (100 mg/mL): Sol. HT): < 100 mg/mL
solubility (acetone/ethyl acetate (50/50 v/v), organic solvent or mixture, thermodynamic from solid, acetone/ethyl acetate (50/50 v/v), high temperature, read-out: Solubility): < 40 mg/mL
solubility (acetone/tetrahydrofuran 95/5 v/v, organic solvent or mixture, thermodynamic from solid, acetone/tetrahydrofuran 95/5 v/v, 100 mg/mL, high temperature, read-out: Solubility HT (100 mg/mL): Sol. HT): < 100 mg/mL
Solubility HT (40 mg/mL): Clear point [3]: 47.5 °C
Solubility HT (40 mg/mL): Re-PPT after 18 hours at −20° C. [3]: YES
Solubility HT (40 mg/mL): Sol. HT (acetone/tetrahydrofuran 95/5 v/v, 40 mg/mL, high temperature): YES
solubility (butyl ethyl ether/methanol (50/50 v/v), organic solvent or mixture, thermodynamic from solid, butyl ethyl ether/methanol (50/50 v/v), high temperature, read-out: Solubility): 40 to 100 mg/mL (≈ 107 to 268 mM)
solubility (butyl methyl ether/methanol 50/50 v/v, organic solvent or mixture, thermodynamic from solid, butyl methyl ether/methanol 50/50 v/v, 100 mg/mL, high temperature, read-out: Solubility HT (100 mg/mL): Sol. HT): < 100 mg/mL
Solubility HT (40 mg/mL): Clear point (butyl methyl ether/methanol 50/50 v/v, 40 mg/mL): 31.8 °C
Solubility HT (40 mg/mL): Sol. HT (butyl methyl ether/methanol 50/50 v/v, 40 mg/mL, high temperature): YES
Solubility HT (100 mg/mL): Clear point [4]: 59.8 °C
Solubility HT (100 mg/mL): Cloudy point [4]: 25 °C
Solubility HT (100 mg/mL): Sol. HT (ethyl acetate/2-propanol 50/50 v/v, 100 mg/mL, high temperature): YES
Solubility HT (100 mg/mL): Re-PPT (ethyl acetate/2-propanol 50/50 v/v, 100 mg/mL, on cooling): YES
solubility (ethyl acetate/2-propanol (50/50 v/v), organic solvent or mixture, thermodynamic from solid, ethyl acetate/2-propanol (50/50 v/v), high temperature, precipitated during cooling, read-out: Solubility): 100 mg/mL (≈ 268 mM)
solubility (ethyl acetate/THF (95/5 v/v), organic solvent or mixture, thermodynamic from solid, ethyl acetate/THF (95/5 v/v), high temperature, precipitated during cooling, read-out: Solubility): 40 mg/mL (≈ 107 mM)
solubility (ethyl acetate/tetrahydrofuran 95/5 v/v, organic solvent or mixture, thermodynamic from solid, ethyl acetate/tetrahydrofuran 95/5 v/v, 100 mg/mL, high temperature, read-out: Solubility HT (100 mg/mL): Sol. HT): < 100 mg/mL
Solubility HT (40 mg/mL): Clear point [5]: 56.3 °C
Solubility HT (40 mg/mL): Cloudy point [5]: 51.3 °C
Solubility HT (40 mg/mL): Sol. HT (ethyl acetate/tetrahydrofuran 95/5 v/v, 40 mg/mL, high temperature): YES
Solubility HT (40 mg/mL): Re-PPT (ethyl acetate/tetrahydrofuran 95/5 v/v, 40 mg/mL, on cooling): YES
solubility (heptane/2-propanol 50/50 v/v, organic solvent or mixture, thermodynamic from solid, heptane/2-propanol 50/50 v/v, 100 mg/mL, high temperature, read-out: Solubility HT (100 mg/mL): Sol. HT): < 100 mg/mL
Solubility HT (40 mg/mL): Clear point [6]: 64.5 °C
Solubility HT (40 mg/mL): Cloudy point [6]: 33.7 °C
Solubility HT (40 mg/mL): Sol. HT (heptane/2-propanol 50/50 v/v, 40 mg/mL, high temperature): YES
Solubility HT (40 mg/mL): Re-PPT (heptane/2-propanol 50/50 v/v, 40 mg/mL, on cooling): YES
solubility (heptane/2-propanol (50/50 v/v), organic solvent or mixture, thermodynamic from solid, heptane/2-propanol (50/50 v/v), high temperature, precipitated during cooling, read-out: Solubility): 40 mg/mL (≈ 107 mM)
solubility (heptane/ethyl acetate 50/50 v/v, organic solvent or mixture, thermodynamic from solid, heptane/ethyl acetate 50/50 v/v, 40 mg/mL, high temperature, read-out: Solubility HT (40 mg/mL): Sol. HT): < 40 mg/mL
solubility (heptane/ethyl acetate 50/50 v/v, organic solvent or mixture, thermodynamic from solid, heptane/ethyl acetate 50/50 v/v, 100 mg/mL, high temperature, read-out: Solubility HT (100 mg/mL): Sol. HT): < 100 mg/mL
solubility (heptane/ethyl acetate (50/50 v/v), organic solvent or mixture, thermodynamic from solid, heptane/ethyl acetate (50/50 v/v), high temperature, read-out: Solubility): < 40 mg/mL
solubility (heptane/toluene 50/50 v/v, organic solvent or mixture, thermodynamic from solid, heptane/toluene 50/50 v/v, 40 mg/mL, high temperature, read-out: Solubility HT (40 mg/mL): Sol. HT): < 40 mg/mL
solubility (heptane/toluene 50/50 v/v, organic solvent or mixture, thermodynamic from solid, heptane/toluene 50/50 v/v, 100 mg/mL, high temperature, read-out: Solubility HT (100 mg/mL): Sol. HT): < 100 mg/mL
solubility (heptane/toluene (50/50 v/v), organic solvent or mixture, thermodynamic from solid, heptane/toluene (50/50 v/v), high temperature, read-out: Solubility): < 40 mg/mL
solubility (water/2-propanol 50/50 v/v, aqueous with cosolvent or surfactant or cyclodextrin, thermodynamic from solid, water/2-propanol 50/50 v/v, 40 mg/mL, high temperature, read-out: Solubility HT (40 mg/mL): Sol. HT): < 40 mg/mL
solubility (water/2-propanol 50/50 v/v, aqueous with cosolvent or surfactant or cyclodextrin, thermodynamic from solid, water/2-propanol 50/50 v/v, 100 mg/mL, high temperature, read-out: Solubility HT (100 mg/mL): Sol. HT): < 100 mg/mL
solubility (water/2-propanol (50/50 v/v), aqueous with cosolvent or surfactant or cyclodextrin, thermodynamic from solid, water/2-propanol (50/50 v/v), high temperature, read-out: Solubility): < 40 mg/mL
solubility (water/THF (50/50 v/v), aqueous with cosolvent or surfactant or cyclodextrin, thermodynamic from solid, water/THF (50/50 v/v), high temperature, read-out: Solubility): < 40 mg/mL
solubility (water/acetonitrile 50/50 v/v, aqueous with cosolvent or surfactant or cyclodextrin, thermodynamic from solid, water/acetonitrile 50/50 v/v, 40 mg/mL, high temperature, read-out: Solubility HT (40 mg/mL): Sol. HT): < 40 mg/mL
solubility (water/acetonitrile 50/50 v/v, aqueous with cosolvent or surfactant or cyclodextrin, thermodynamic from solid, water/acetonitrile 50/50 v/v, 100 mg/mL, high temperature, read-out: Solubility HT (100 mg/mL): Sol. HT): < 100 mg/mL
solubility (water/acetonitrile (50/50 v/v), aqueous with cosolvent or surfactant or cyclodextrin, thermodynamic from solid, water/acetonitrile (50/50 v/v), high temperature, read-out: Solubility): < 40 mg/mL
solubility (water/tetrahydrofuran 95/5 v/v, aqueous with cosolvent or surfactant or cyclodextrin, thermodynamic from solid, water/tetrahydrofuran 95/5 v/v, 40 mg/mL, high temperature, read-out: Solubility HT (40 mg/mL): Sol. HT): < 40 mg/mL
solubility (water/tetrahydrofuran 95/5 v/v, aqueous with cosolvent or surfactant or cyclodextrin, thermodynamic from solid, water/tetrahydrofuran 95/5 v/v, 100 mg/mL, high temperature, read-out: Solubility HT (100 mg/mL): Sol. HT): < 100 mg/mL
SMILES: CC/C(=C(\c1ccc(O)cc1)c1ccc(OCCNC)cc1)c1ccccc1 [(Z)-endoxifen, (Z)-4-(1-(4-(2-(methylamino)ethoxy)phenyl)-2-phenylbut-1-enyl)phenol]
